Where two headings read alike, the source gives them in different places.
Legend:
[1] = test system: ELO(Ci); assay: ELO(Ci) expressed in yeast, conversion of starting materials; format: cell-based, Ciona intestinalis; conditions: fed at in each case 250 μM
Protocol: (holding). […] Biochem. […] Thereafter, the FAMEs were analyzed via GLC.

[2] = test system: ELO(XI); assay: ELO(XI) expressed in yeast, conversion of starting materials; format: cell-based, Xenopus laevis; conditions: fed at in each case 250 μM
Protocol: Thereafter, the FAMEs were analyzed via GLC.

[3] = test system: PtELO6 (Δ6-elongase); assay: PtELO6 expressed in yeast, feeding experiment; conditions: for conversion of fatty acid fed: fed to yeast with pYES2-PtELO6; for % Elongation: fatty acid added at 250 μm
Protocol: The PCR products were incubated for 30 minutes at 21° C. with the yeast expression vector pYES2.1-TOPO (Invitrogen) following the manufacturer's instructions. The PCR product (see SEQ ID NO: 192) was ligated into the vector by means of a T-overhang and the activity of a topoisomerase (Invitrogen). After the incubation, E. coli DH5α cells were transformed. Suitable clones were identified by PCR, the plasmid DNA was isolated by means of the Qiagen DNAeasy kit and verified by sequencing. The correct sequence was then transformed into the Saccharomyces strain INVSc1 (Invitrogen) by electroporation (1500 V). As a control, the blank vector pYES2.1 was transformed in parallel. Thereafter, the yeasts were plated of minimal dropout uracil medium supplemented with 2% glucose. Cells which were capable of growing in the medium without uracil thus comprise the corresponding plasmids pYES2.1 and pYES2.1-PtELO6. After the selection, in each case two transformants were chosen for the further functional expression.
The yeast cells from the main cultures were harvested by centrifugation (100×g, 5 min, 20° C.) and washed with 100 mM NaHCO3, pH 8.0 to remove residual medium and fatty acids. Starting with the yeast cell sediments, fatty acid methyl esters (FAMEs) were prepared by acid methanolysis. To this end, the cell sediments were incubated for one hour at 80° C. together with 2 ml of 1 N methanolic sulfuric acid and 2% (v/v) of dimethoxypropane. The FAMEs were extracted twice with petroleum ether (PE). To remove nonderivatized fatty acids, the organic phases were washed in each case once with 2 ml of 100 mM NaHCO3, pH 8.0 and 2 ml of distilled water. Thereafter, the PE phases were dried with Na2SO4, evaporated under argon and taken up in 100 μl of PE. The samples were separated on a DB-23 capillary column (30 m, 0.25 mm, 0.25 μm, Agilent) in a Hewlett-Packard 6850 gas chromatograph equipped with flame ionization detector. The conditions for the GLC analysis were as follows: the oven temperature was programmed from 50° C. to 250° C. with a rate of 5° C./min and finally 10 min at 250° C. (holding).
The signals were identified by comparing the retention times with corresponding fatty acid standards (Sigma).
Feeding experiment: fatty acids (in bold) were added at in each case 250 μm.
The yeasts which had been transformed with the vector pYES2-PtELO6 were grown in minimal medium in the presence of the fatty acids stated. The fatty acid methyl esters were synthesized by subjecting intact cells to acid methanolysis. Thereafter, the FAMEs were analyzed via GLC.

[4] = test system: OtElo2 (Δ6-elongase); format: cell-based, Ostreococcus tauri
[5] = test system: TL16y2; assay: TL16y2 expressed in yeast, feeding experiments; format: cell-based, Thraustochytrium ssp.; conditions: in comparison with the control
Protocol: The substrate specificity of BioTaurELO1 was determined after expression and feeding of various fatty acids (FIG. 6). […] After the fatty acids had been extracted from the yeasts, they were transmethylated and separated by gas chromatography. The elongation products obtained from the two fatty acids which had been fed are identified by arrows.
The functionality and substrate specificity of TL16y2 was determined after expression and feeding of various fatty acids. […] The feeding experiments were carried-out in the same manner as described for BioTaurELO1. The substrates fed can be detected in large amounts in all transgenic yeasts. […] This means that functional expression of the gene TL16y2 has been possible.

[6] = test system: TpELO3 (Δ6-elongase); format: cell-based, Thalassiosira pseudonana
[7] = test system: OtElo2.1 (Δ6-elongase); format: cell-based, Ostreococcus tauri
[8] = test system: Δ6-desaturase OtDes6.1, Δ6-elongase PSE1 and Δ5-desaturase PtD5; assay: Reconstitution of ARA and EPA pathways in yeast: OtDes6.1 with PSE1 and PtD5; format: cell-based, Saccharomyces cerevisiae; conditions: for elongation by Δ6-elongase PSE1 to DHGLA and DHSTA: products of OtDes6.1 from LA and ALA (FIG. 21)
Text: The subsequent desaturation by the Δ5-desaturase PtD5 to give ARA and EPA, respectively, is also problem-free. Approximately 25-30% of the elongase product is desaturated (FIGS. 21 B and D).

[9] = test system: OmElo3, EgD4 and P. tricornutum Δ5-desaturase (PtD5); assay: Reconstitution of DHA synthesis in yeast: coexpression of OmElo3, EgD4 and PtD5; format: cell-based, Saccharomyces cerevisiae; conditions: fed 18:4 ω3
Protocol: The reconstitution of the biosynthesis of DHA (22:6 ω3) was carried out starting from EPA (20:5 ω3) or stearidonic acid (18:4 ω3) by coexpressing OmElo3 together with the Euglena gracilis Δ4-desaturase or the Phaeodactylum tricomutum Δ5-desaturase and the Euglena gracilis Δ4-desaturase. To this end, the expression vectors pYes2-EgD4 and pESCLeu-PtD5 were additionally constructed. The abovementioned yeast strain which is already transformed with pYes3-OtElo3 (SEQ ID NO: 55), was transformed further with pYes2-EgD4, or simultaneously with pYes2-EgD4 and pESCLeu-PtD5. […] The cultures were incubated for a further 120 hours at 15° C.
In a further coexpression experiment, OmElo3, EgD4 and a P. tricornutum Δ5-desaturase (PtD5) were expressed together. The transgenic yeasts were fed stearidonic acid (18:4 ω3) and they were analyzed (FIG. 4). The fatty acid fed, 18:4 ω3, was elongated by OmElo3 to give 20:4 ω3 (60% elongation). The latter was desaturated by PtD5 to give 20:5 ω3. The PtD5 activity was 15%. Moreover, it was possible to elongate 20:5 ω3 by OmElo3 to give 22:5 ω3. Thereafter, the newly synthesized 22:5 ω3 was desaturated to 22:6 ω3 (DHA). Up to 0.7% of DHA was obtained in these experiments.

[10] = test system: TpELO1 (Δ5-elongase); assay: TpELO1 expressed in yeast, feeding experiments; conditions: 250 μM fatty acid fed
Protocol: The PCR products were incubated for 30 minutes at −21° C. with the yeast expression vector pYES2.1-TOPO (Invitrogen) following the manufacturer's instructions. The PCR product was ligated into the vector by means of a T-overhang and the activity of a topoisomerase (Invitrogen). After the incubation, E. coli DH5α cells were transformed. Suitable clones were identified by PCR, the plasmid DNA was isolated by means of the Qiagen DNAeasy kit and verified by sequencing. The correct sequence was then transformed into the Saccharomyces strain INVSc1 (Invitrogen) by electroporation (1500 V). As a control, the blank vector pYES2.1 was transformed in parallel. Thereafter, the yeasts were plated out on minimal dropout uracil medium supplemented with 2% glucose. Cells which were capable of growing in the medium without uracil thus comprise the corresponding plasmids pYES2.1, pYES2.1-TpELO1, pYES2.1-ELO2 and pYES2.1-TpELO3. After the selection, in each case two transformants were chosen for the further functional expression.
The yeast cells from the main cultures were harvested by centrifugation (100×g, 5 min, 20° C.) and washed with 100 mM NaHCO3, pH 8.0 to remove residual medium and fatty acids. […]
The yeasts which had been transformed with the vector pYES2-TpELO1 were grown in minimal medium in the presence of the fatty acids stated. […] Thereafter the FAMEs were analyzed by GLC.

[11] = test system: OtElo1.2 (Δ5-elongase); format: cell-based, Ostreococcus tauri; conditions: Table 15; yeast with pOTE1.2
[12] = test system: OtElo1 (Δ5-elongase); format: cell-based, Ostreococcus tauri; conditions: Table 15; yeast with pOTE1
[13] = test system: OmElo3; assay: OmElo3 expressed in yeast, feeding of fatty acids, GC of FAMEs; format: cell-based, Oncorhynchus mykiss; conditions: yeast with pYes3-OmElo3 and blank vector pYes2, fed 20:5 ω3
[14] = test system: OmELO2; assay: OmELO2 expressed in yeast, feeding of fatty acids; format: cell-based, Oncorhynchus mykiss; conditions: expression in yeast
[15] = test system: At3g06460; assay: At3g06460 expressed in yeast, elongation of EPA; conditions: feeding with 250 uM EPA
Text: (§1) To characterize the function of the A. thaliana desaturases, the open reading frame of the DNA in question is cloned downstream of the galactose-inducible GALL promoter of pYES2.1/V5-His-TOPO (Invitrogen), giving rise to the corresponding pAt60 and pAt70 clones.
(§2) The Saccharomyces cerevisiae strain 334 is transformed with the vectors pAt60 and pAt70, respectively by electroporation (1500 V). A yeast which is transformed with the blank vector pYES2.1 is used for control purposes. The transformed yeasts are selected on complete minimal medium (CMdum) agar plates supplemented with 2% glucose, but lacking uracil. After the selection, in each case three transformants are chosen for the further functional expression.
(§3) To express the At elongases, precultures of in each case 5 ml of CMdum liquid medium supplemented with 2% (w/v) raffinose, but without uracil, were inoculated with the selected transformants and incubated for 2 hours at 30° C., 200 rpm.
(§4) 5 ml of CMdum liquid medium (without uracil) supplemented with 2% of raffinose and 300 μM various fatty acids were then inoculated with the precultures to an OD600 of 0.05. Expression was induced by the addition of 2% (w/v) galactose. The cultures were incubated for a further 96 hours at 20° C. […]

[16] = test system: At3g06470; assay: At3g06470 expressed in yeast, elongation of EPA; conditions: feeding with 250 uM EPA
Text: as §1, §2, §3, §4

## CCCCCCCCCCCCCCCC(=O)O [16:0, palmitic acid]
[1]
  Conversion of the starting materials by ELO(Ci) in %: 0%
[2]
  Conversion of the starting materials by ELO(XI) in %: 3%

## CCCCCCCCCCCCCCCCCC(=O)O [18:0, stearic acid]
[1]
  Conversion of the starting materials by ELO(Ci) in %: 0%
[2]
  Conversion of the starting materials by ELO(XI) in %: 2%

## CCCCCCC=CCCCCCCCCCC(=O)O [18:1^Δ11]
[3]
  conversion of fatty acid fed: not converted

## CCCCC/C=C\C/C=C\CCCCCCCC(=O)O [18:2^Δ9,12, linoleic acid]
[3]
  % Elongation: 0.99%

## CCCCC/C=C\C/C=C\CC/C=C\CCCC(=O)O [18:3^Δ5,9,12, pinolenic acid]
[1]
  Conversion of the starting materials by ELO(Ci) in %: 38%
[2]
  Conversion of the starting materials by ELO(XI) in %: 13%

## CCCCC/C=C\C/C=C\C/C=C\CCCCC(=O)O [18:3^Δ6,9,12, γ-linolenic acid]
[4]
  Conversion rate (in %) OtElo2: 15.3%
[5]; 250 μM fatty acid fed
  % conversion rate: 74.9%
[6]
  % conversion rate: 75%
[7]
  Conversion rate (in %) OtELO2.1: 55.7%
[8]
  elongation by Δ6-elongase PSE1 to DHGLA and DHSTA: elongated almost quantitatively

## CC/C=C\C/C=C\C/C=C\C/C=C\CCCCC(=O)O [18:4^Δ6,9,12,15, stearidonic acid]
[4]; Table 16, yeast with pOTE2
  Conversion rate (in %) OtElo2: 21.1%
[5]; 250 μM fatty acid fed
  % conversion rate: 79.4%
[6]; 250 μM of each fatty acid fed
  % conversion rate: 85%
[3]
  % Elongation: 76.32%
[7]; Table 16, yeast with pOTE2.1
  Conversion rate (in %) OtELO2.1: 70.4%
[9]
  elongation by OmElo3 to 20:4 ω3: 60%
[8]
  elongation by Δ6-elongase PSE1 to DHGLA and DHSTA: elongated almost quantitatively

## CCCCC/C=C\C/C=C\C/C=C\CCCCCCC(=O)O [20:3^Δ8,11,14, dihomo-γ-linolenic acid]
[1]
  Conversion of the starting materials by ELO(Ci) in %: 10%
[3]
  conversion of fatty acid fed: not converted
[2]
  Conversion of the starting materials by ELO(XI) in %: 5%

## CC/C=C\C/C=C\C/C=C\CCCCCCCCCC(=O)O [20:3^Δ11,14,17]
[1]
  Conversion of the starting materials by ELO(Ci) in %: 8%
[3]
  conversion of fatty acid fed: not converted

## CCCCC/C=C\C/C=C\C/C=C\C/C=C\CCCC(=O)O [20:4^Δ5,8,11,14, arachidonic acid]
[5]; 250 μM fatty acid fed
  % conversion rate: 20.3%
[10]
  % conversion rate: 1.7%
[11]
  Conversion rate (in %) OtElo1.2: 38.0%
[6]; 250 μM of each fatty acid fed
  % conversion rate: 0%
[12]
  Conversion rate (in %) OtElo1: 10.8 ± 0.6%
[1]
  Conversion of the starting materials by ELO(Ci) in %: 10%
[2]
  Conversion of the starting materials by ELO(XI) in %: 15%

## CC/C=C\C/C=C\C/C=C\C/C=C\C/C=C\CCCC(=O)O [20:5^Δ5,8,11,14,17, eicosapentaenoic acid]
[13]
  elongation of 20:5 ω3 to 22:5 ω3: 65%
[5]; 50 μM fatty acid fed
  % conversion rate: 41%
[5]; 250 μM fatty acid fed
  % conversion rate: 8%
[10]
  % conversion rate: 12.2%
[11]
  Conversion rate (in %) OtElo1.2: 68.6%
[6]; 250 μM of each fatty acid fed
  % conversion rate: 0%
[12]
  Conversion rate (in %) OtElo1: 46.8 ± 3.6%

## CCCCCC=CCC=CCC=CCC=CCCCCCC(=O)O [22:4^Δ7,10,13,16, docosatetraenoic acid]
[1]
  Conversion of the starting materials by ELO(Ci) in %: 0%
[3]
  conversion of fatty acid fed: not converted
[2]
  Conversion of the starting materials by ELO(XI) in %: 0%

## eicosadienoic acid [20:2^Δ11,14]
[3]
  conversion of fatty acid fed: not converted

B1: PtD5: Phaeodactylum tricornutum Δ5-desaturase, SEQ ID NO: 5 (protein, listed as Phaeodactylum tricornutum)
chain: MAPDADKLRQRQTTAVAKHNAATISTQERLCSLSSLKGEEVCIDGIIYDLQSFDHPGGETIKMFGGNDVTVQYKMIHPYHTEKHLEKMKRVGKVTDFVCEYKFDTEFEREIKREVFKIVRRGKDFGTLGWFFRAFCYIAIFFYLQYHWVTTGTSWLLAVAYGISQAMIGMNVQHDANHGATSKRPWVNDMLGLGADFIGGSKWLWQEQHWTHHAYTNHAEMDPDSFGAEPMLLFNDYPLDHPARTWLHRFQAFFYMPVLAGYWLSAVFNPQILDLQQRGALSVGIRLDNAFIHSRRKYAVFWRAVYIAVNVIAPFYTNSGLEWSWRVFGNIMLMGVAESLALAVLFSLSHNFESADRDPTAPLKKTGEPVDWFKTQVETSCTYGGFLSGCFTGGLNFQVEHHLFPRMSSAWYPYIAPKVREICAKHGVHYAYYPWIHQNFLSTVRYMHAAGTGANWRQMARENPLTGRA
modifications: CDS (1)..(1410) delta5-desaturase
[9]
  PtD5 activity (desaturation of 20:4 ω3 to 20:5 ω3): 15%
[8]; to ARA and EPA (FIGS. 21 B and D)
  share of the elongase product desaturated by Δ5-desaturase PtD5: 25-30%

B2: OmELO2: Oncorhynchus mykiss elongase gene product, SEQ ID NO: 51 (protein)
chain: MASTWQSVQSMRQWILENGDKRTDPWLLVYSPMPVAIIFLLYLGVVWAGPKLMKRREPVDLKAVLIVYNFAMVCLSVYMFHEFLVTSLLSNYSYLCQPVDYSTSPLAMRMAKVCWWFFFSKVIELADTVFFILRKKNSQLTFLHVYHHGTMIFNWWAGVKYLAGGQSFFIGLLNTFVHIVMYSYYGLAALGPHTQKYLWWKRYLTSLQLLQFVLLTTHTGYNLFTECDFPDSMNAVVFAYCVSLIALFSNFYYQSYLNRKSKKT
modifications: Oncorhynchus mykiss; CDS (1)..(795) delta5-elongase
[14]
  elongase activity: no elongase activity

B3: At3g06460: Arabidopsis thaliana elongase, SEQ ID NO: 135 (protein, listed as Arabidopsis thaliana)
chain: MASVYSTLTYWLVHHPYIANFTWTEGETLGSTVFFVFVVVSLYLSATFLLRYTVDSLPTLGPRILKPITAVHSLILFLLSLTMAVGCTLSLISSSDPKARLFDAVCFPLDVKPKGPLFFWAQVFYLSKILEFVDTLLIILNKSIQRLSFLHVYHHATVVILCYLWLRTRQSMFPVGLVLNSTVHVIMYGYYFLCAIGSRPKWKKLVTNFQMVQFAFGMGLGAAWMLPEHYFGSGCAGIWTVYFNGVFTASLLALFYNFHSKNYEKTTTSPLYKIESFIFIHGERWANKAITLFSKKND
modifications: CDS (1)..(897) delta5-elongase
[15]
  Conversion rate of EPA: At3g06460: 3.0%

B4: At3g06470: Arabidopsis thaliana elongase, SEQ ID NO: 137 (protein, listed as Arabidopsis thaliana)
chain: MASIYSSLTYWLVNHPYISNFTWIEGETLGSTVFFVSVVVSVYLSATFLLRSAIDSLPSLSPRILKPITAVHSLILCLLSLVMAVGCTLSITSSHASSDPMARFLHAICFPVDVKPNGPLFFWAQVFYLSKILEFGDTILIILGKSIQRLSFLHVYHHATVVVMCYLWLRTRQSMFPIALVTNSTVHVIMYGYYFLCAVGSRPKWKRLVTDCQIVQFVFSFGLSGWMLREHLFGSGCTGIWGWCFNAAFNASLLALFSNFHSKNYVKKPTREDGKKSD
modifications: CDS (1)..(837) delta5-elongase
[16]
  Conversion rate of EPA: At3g06470: 4.1%

Reference: patent US9433228B2, “Method for the production of multiple-unsaturated fatty acids in transgenic organisms” (BASF Plant Science GmbH, priority 2003, dated 2016)
